Several values for one entry are separate records, joined by “and”; a condition that tells them apart may be missing. Identical values can stand only once. Activity calls are given as the source filed them. The rule behind the calls is not given here.
System: rodent lifetime carcinogenesis bioassay, tumor incidence TD50
Experiment: carcinogenic potency in animals, long-term in vivo studies, CPDB compilation (AID 1745844)

With `CC/C(=C(/CC)c1ccc(O)cc1)c1ccc(O)cc1` the TD50 (mouse, strain (C57BL/6 x BALB/c)F1, females, in feed, site: cervix, lesion: squamous-cell carcinoma, dosed 148 weeks, study length 161 weeks) was 1.98 mg/kg/day, the carcinogen call (mouse, strain (C57BL/6 x BALB/c)F1, females, in feed, site: mammary gland, lesion: adenocarcinoma, type B, dosed 148 weeks, study length 161 weeks) was “positive” and the TD50 (mouse, strain (C57BL/6 x BALB/c)F1, females, in feed, site: pituitary gland, lesion: adenocarcinoma, dosed 148 weeks, study length 161 weeks) was 2.01 mg/kg/day. For the same compound, the TD50 (mouse, strain (C57BL/6 x BALB/c)F1, females, in feed, site: pituitary gland, lesion: adenoma, dosed 148 weeks, study length 161 weeks) was 0.0387 mg/kg/day, the TD50 (mouse, strain (C57BL/6 x BALB/c)F1, males, in feed, site: pituitary gland, lesion: adenoma, dosed 150 weeks, study length 169 weeks) was 0.0722 mg/kg/day and the TD50 (mouse, strain (C57BL/6 x BALB/c)F1, males, in feed, site: testis, lesion: interstitial-cell tumor, dosed 150 weeks, study length 169 weeks) was 0.0408 mg/kg/day. The TD50 (mouse, strain BALB/cStCrlfC3Hf/Nctr, females, in feed, site: cervix, lesion: adenoacanthoma, dosed 132 weeks, study length 133 weeks) was 1.28 mg/kg/day, the TD50 (mouse, strain BALB/cStCrlfC3Hf/Nctr, females, in feed, site: cervix, lesion: squamous-cell carcinoma, dosed 132 weeks, study length 133 weeks) was 0.311 mg/kg/day and the TD50 (mouse, strain BALB/cStCrlfC3Hf/Nctr, females, in feed, site: mammary gland, lesion: adenoacanthoma, dosed 132 weeks, study length 133 weeks) was 1.88 mg/kg/day. For the same compound, the TD50 (mouse, strain BALB/cStCrlfC3Hf/Nctr, females, in feed, site: mammary gland, lesion: adenocarcinoma, type B, dosed 132 weeks, study length 133 weeks) was 0.476 mg/kg/day, the TD50 (mouse, strain BALB/cStCrlfC3Hf/Nctr, females, in feed, site: ovary, lesion: granulosa-cell tumor, dosed 132 weeks, study length 133 weeks) was 0.166 mg/kg/day and the TD50 (mouse, strain BALB/cStCrlfC3Hf/Nctr, females, in feed, site: pituitary gland, lesion: adenocarcinoma, dosed 132 weeks, study length 133 weeks) was 5.1 mg/kg/day. The TD50 (mouse, strain BALB/cStCrlfC3Hf/Nctr, females, in feed, site: pituitary gland, lesion: adenoma, dosed 132 weeks, study length 133 weeks) was 0.2 mg/kg/day, the TD50 (mouse, strain BALB/cStCrlfC3Hf/Nctr, females, in feed, site: uterus, lesion: adenocarcinoma, dosed 132 weeks, study length 133 weeks) was 5.32 mg/kg/day and the TD50 (mouse, strain BALB/cStCrlfC3Hf/Nctr, females, in feed, site: vagina, lesion: squamous-cell carcinoma, dosed 132 weeks, study length 133 weeks) was 1.31 mg/kg/day. For the same compound, the TD50 (mouse, strain BALB/cStCrlfC3Hf/Nctr, males, in feed, site: pituitary gland, lesion: adenoma, dosed 121 weeks, study length 126 weeks) was 0.171 mg/kg/day, the TD50 (mouse, strain BALB/cStCrlfC3Hf/Nctr, males, in feed, site: testis, lesion: interstitial-cell tumor, dosed 121 weeks, study length 126 weeks) was 0.0215 mg/kg/day and the TD50 (mouse, strain C3H (MTV+), females, in feed, site: mammary gland, lesion: adenocarcinoma, dosed 104 weeks, study length 104 weeks) was 0.026 mg/kg/day. The TD50 (mouse, strain C3H (MTV+), females, in feed, site: mammary gland, lesion: carcinoma, dosed 85 weeks, study length 85 weeks) was 0.0292 mg/kg/day, the TD50 (mouse, strain C3H/AnCum, males, in feed, site: mammary gland, lesion: carcinoma, dosed 104 weeks, study length 104 weeks) was 0.0359 mg/kg/day and 0.0421 mg/kg/day and 0.0789 mg/kg/day and the TD50 (mouse, strain C3H/HeJ (MTV+), females, in feed, site: mammary gland, lesion: adenocarcinoma, dosed 52 weeks, study length 52 weeks) was 0.0825 mg/kg/day. The TD50 (mouse, strain C3H/HeJ (MTV+), females, in feed, site: mammary gland, lesion: adenocarcinoma, dosed 104 weeks, study length 104 weeks) was 14.2 mg/kg/day, the TD50 (mouse, strain C3H/HeJ (MTV+), females, in feed, site: ovary, lesion: tubular adenoma, dosed 78 weeks, study length 78 weeks) was 0.0222 mg/kg/day and the TD50 (mouse, strain C3H/HeN-MTV-/Nctr (MTV-), females, in feed, site: all sites, lesion: mesothelioma, dosed 112 weeks, study length 112 weeks) was 0.928 mg/kg/day. It also gave a TD50 (mouse, strain C3H/HeN-MTV-/Nctr (MTV-), females, in feed, site: all sites, lesion: mesothelioma, dosed 123 weeks, study length 123 weeks) of 0.487 mg/kg/day, a TD50 (mouse, strain C3H/HeN-MTV-/Nctr (MTV-), females, in feed, site: all sites, lesion: mesothelioma, dosed 125 weeks, study length 125 weeks) of 0.52 mg/kg/day and a TD50 (mouse, strain C3H/HeN-MTV-/Nctr (MTV-), females, in feed, site: cervix uteri, lesion: adenocarcinoma, dosed 112 weeks, study length 112 weeks) of 2.47 mg/kg/day. For the same compound, the TD50 (mouse, strain C3H/HeN-MTV-/Nctr (MTV-), females, in feed, site: cervix uteri, lesion: adenocarcinoma, dosed 123 weeks, study length 123 weeks) was 1.66 mg/kg/day, the TD50 (mouse, strain C3H/HeN-MTV-/Nctr (MTV-), females, in feed, site: cervix uteri, lesion: adenocarcinoma, dosed 125 weeks, study length 125 weeks) was 1.17 mg/kg/day and the TD50 (mouse, strain C3H/HeN-MTV-/Nctr (MTV-), females, in feed, site: mammary gland, lesion: adenocarcinoma, type A, dosed 107 weeks, study length 107 weeks) was 2.63 mg/kg/day. It also gave a TD50 (mouse, strain C3H/HeN-MTV-/Nctr (MTV-), females, in feed, site: mammary gland, lesion: adenocarcinoma, type A, dosed 123 weeks, study length 123 weeks) of 4.39 mg/kg/day, a TD50 (mouse, strain C3H/HeN-MTV-/Nctr (MTV-), females, in feed, site: mammary gland, lesion: adenocarcinoma, type A, dosed 125 weeks, study length 125 weeks) of 2.1 mg/kg/day and a TD50 (mouse, strain C3H/HeN-MTV-/Nctr (MTV-), females, in feed, site: mammary gland, lesion: adenocarcinoma, type B, dosed 107 weeks, study length 107 weeks) of 0.0302 mg/kg/day. For the same compound, the TD50 (mouse, strain C3H/HeN-MTV-/Nctr (MTV-), females, in feed, site: mammary gland, lesion: adenocarcinoma, type B, dosed 112 weeks, study length 112 weeks) was 0.0434 mg/kg/day, the TD50 (mouse, strain C3H/HeN-MTV-/Nctr (MTV-), females, in feed, site: mammary gland, lesion: adenocarcinoma, type B, dosed 123 weeks, study length 123 weeks) was 0.118 mg/kg/day and the TD50 (mouse, strain C3H/HeN-MTV-/Nctr (MTV-), females, in feed, site: mammary gland, lesion: adenocarcinoma, type B, dosed 125 weeks, study length 125 weeks) was 0.0956 mg/kg/day. For the same compound, the TD50 (mouse, strain C3H/HeN-MTV-/Nctr (MTV-), females, in feed, site: mammary gland, lesion: several types, types named in the paper, dosed 107 weeks, study length 107 weeks) was 0.0247 mg/kg/day, the TD50 (mouse, strain C3H/HeN-MTV-/Nctr (MTV-), females, in feed, site: mammary gland, lesion: several types, types named in the paper, dosed 112 weeks, study length 112 weeks) was 0.0427 mg/kg/day and the TD50 (mouse, strain C3H/HeN-MTV-/Nctr (MTV-), females, in feed, site: mammary gland, lesion: several types, types named in the paper, dosed 123 weeks, study length 123 weeks) was 0.115 mg/kg/day. For the same compound, the TD50 (mouse, strain C3H/HeN-MTV-/Nctr (MTV-), females, in feed, site: mammary gland, lesion: several types, types named in the paper, dosed 125 weeks, study length 125 weeks) was 0.0872 mg/kg/day, the TD50 (mouse, strain C3H/HeN-MTV-/Nctr (MTV-), females, in feed, site: uterus, lesion: endometrial adenocarcinoma, dosed 112 weeks, study length 112 weeks) was 2.05 mg/kg/day and the TD50 (mouse, strain C3H/HeN-MTV-/Nctr (MTV-), females, in feed, site: uterus, lesion: endometrial adenocarcinoma, dosed 123 weeks, study length 123 weeks) was 1.87 mg/kg/day. The TD50 (mouse, strain C3H/HeN-MTV-/Nctr (MTV-), females, in feed, site: uterus, lesion: endometrial adenocarcinoma, dosed 125 weeks, study length 125 weeks) was 1.71 mg/kg/day, the TD50 (mouse, strain C3HeB/FeJ, females, in feed, site: mammary gland, lesion: adenocarcinoma, dosed 78 weeks, study length 78 weeks) was 0.295 mg/kg/day and the TD50 (mouse, strain C3HeB/FeJ, females, in feed, site: ovary, lesion: tubular adenoma, dosed 78 weeks, study length 78 weeks) was 0.329 mg/kg/day. For the same compound, the TD50 (mouse, strain C3HeB/FeJ, females, in feed, site: ovary, lesion: tubular adenoma, dosed 104 weeks, study length 104 weeks) was 0.597 mg/kg/day, the TD50 (mouse, strain C57BL/6, females, in feed, site: pituitary gland, lesion: adenoma, dosed 118 weeks, study length 143 weeks) was 0.0259 mg/kg/day and the carcinogen call (mouse, strain C57BL/6, females, in feed, site: thyroid gland, lesion: follicular-cell tumor, dosed 118 weeks, study length 143 weeks) was “positive”. For the same compound, the TD50 (mouse, strain C57BL/6, males, in feed, site: pituitary gland, lesion: adenocarcinoma, dosed 125 weeks, study length 153 weeks) was 1.42 mg/kg/day, the TD50 (mouse, strain C57BL/6, males, in feed, site: pituitary gland, lesion: adenoma, dosed 125 weeks, study length 153 weeks) was 0.0176 mg/kg/day and the TD50 (mouse, strain C57BL/6, males, in feed, site: testis, lesion: interstitial-cell tumor, dosed 125 weeks, study length 153 weeks) was 0.257 mg/kg/day. It also gave a TD50 (mouse, strain C57BL/6, males, in feed, site: thyroid gland, lesion: follicular-cell tumor, dosed 125 weeks, study length 153 weeks) of 0.05 mg/kg/day, a TD50 (mouse, strain Monohybrid cross offspring of B6CF1 (C57BL/6 x BALB/c), females, in feed, site: cervix, lesion: squamous-cell carcinoma, dosed 144 weeks, study length 153 weeks) of 1.03 mg/kg/day and a TD50 (mouse, strain Monohybrid cross offspring of B6CF1 (C57BL/6 x BALB/c), females, in feed, site: ovary, lesion: granulosa-cell tumor, dosed 144 weeks, study length 153 weeks) of 1.74 mg/kg/day. The TD50 (mouse, strain Monohybrid cross offspring of B6CF1 (C57BL/6 x BALB/c), females, in feed, site: pituitary gland, lesion: adenocarcinoma, dosed 144 weeks, study length 153 weeks) was 17 mg/kg/day, the TD50 (mouse, strain Monohybrid cross offspring of B6CF1 (C57BL/6 x BALB/c), females, in feed, site: pituitary gland, lesion: adenoma, dosed 144 weeks, study length 153 weeks) was 0.0456 mg/kg/day and the TD50 (mouse, strain Monohybrid cross offspring of B6CF1 (C57BL/6 x BALB/c), females, in feed, site: thyroid gland, lesion: follicular-cell adenoma, dosed 144 weeks, study length 153 weeks) was 0.186 mg/kg/day. For the same compound, the TD50 (mouse, strain Monohybrid cross offspring of B6CF1 (C57BL/6 x BALB/c), females, in feed, site: uterus, lesion: mesothelioma, dosed 144 weeks, study length 153 weeks) was 1.72 mg/kg/day, the TD50 (mouse, strain Monohybrid cross offspring of B6CF1 (C57BL/6 x BALB/c), males, in feed, site: pituitary gland, lesion: adenocarcinoma, dosed 147 weeks, study length 158 weeks) was 4.36 mg/kg/day and the TD50 (mouse, strain Monohybrid cross offspring of B6CF1 (C57BL/6 x BALB/c), males, in feed, site: pituitary gland, lesion: adenoma, dosed 147 weeks, study length 158 weeks) was 0.0794 mg/kg/day. The TD50 (mouse, strain Monohybrid cross offspring of B6CF1 (C57BL/6 x BALB/c), males, in feed, site: testis, lesion: interstitial-cell tumor, dosed 147 weeks, study length 158 weeks) was 0.0661 mg/kg/day, the TD50 (rat, strain Charles River CD (Sprague-Dawley), females, in feed, site: liver, lesion: hepatoma, dosed 91 weeks, study length 104 weeks) was 0.13 mg/kg/day (inactive) and the TD50 (rat, strain Charles River CD (Sprague-Dawley), males, in feed, site: adrenal gland, lesion: cortical adenoma, dosed 66 weeks, study length 66 weeks) was 0.39 mg/kg/day. The TD50 (rat, strain Charles River CD (Sprague-Dawley), males, in feed, site: liver, lesion: carcinoma, dosed 66 weeks, study length 66 weeks) was 1.21 mg/kg/day, the TD50 (rat, strain Charles River CD (Sprague-Dawley), males, in feed, site: liver, lesion: nodular hyperplasia, dosed 66 weeks, study length 66 weeks) was 0.39 mg/kg/day and the carcinogen call (rat, strain Charles River CD (Sprague-Dawley), males, in feed, site: liver, lesion: one or several types, types not named, dosed 91 weeks, study length 104 weeks) was “negative (inactive)”. For the same compound, the TD50 (rat, strain Charles River CD (Sprague-Dawley), males, in feed, site: pituitary gland, lesion: chromophobe adenoma, dosed 66 weeks, study length 66 weeks) was 0.114 mg/kg/day, the TD50 (rat, strain Sprague-Dawley, females, by gavage, site: liver, lesion: hepatocellular adenoma, dosed 52 weeks, study length 52 weeks) was 16.3 mg/kg/day and the TD50 (rat, strain Sprague-Dawley, females, by gavage, site: liver, lesion: hepatocellular carcinoma, dosed 52 weeks, study length 52 weeks) was 4.8 mg/kg/day. For the same compound, the TD50 (rat, strain Sprague-Dawley, females, by gavage, site: pituitary gland, lesion: adenoma, dosed 52 weeks, study length 52 weeks) was 7.68 mg/kg/day.

Source: PubChem BioAssay AID1745844 (Carcinogenic Potency Database (CPDB), 2022)
